Experimental data published in article PMC10518257 (Nature Cancer, 2023).
Values joined by “and” are separate entries in the source; they are usually repeats but may differ in a detail not shown here. Equal entries are not always repeated.

What was measured:
LUAD-0077AS1 PDX = test: PDX efficacy study; assay type: in vivo, NSG mice; design: Tumor volume: unit not given here; settings: for Area Under Curve Mean: Fig. 6b LUAD-0077AS1 tumor growth; for Change in tumor volume (block without heading, Fig. 6b) / Tumor volume: LUAD-0077AS1, individual animals
[1] = test system: Ba/F3 KIF5B–RET^G810R allograft tumors; test: Subcutaneous allograft efficacy study; assay type: in vivo, BALB/c nude mice; settings: in mm³ (unit assumed);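 also: mean tumor volume per dosing group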
LUAD-0087AS2 PDX = test: PDX efficacy study; settings: for Change in tumor volume (% from base line): Fig. 6a LUAD-0087AS2; for Change in tumor volume (% from base line) / Tumor volume: individual animals; for Area Under Curve Mean: Fig. 6a LUAD-0087AS2 tumor growth; for Tumor volume: LUAD-0087AS2

COCc1ccc(NC(=O)c2c(C#CCN3CCOCC3)n(C3(C)CC3)c3ncnc(N)c23)cc1 [Vepafestinib, 4-amino-N-[4-(methoxymethyl)phenyl]-7-(1-methylcyclopropyl)-6-[3-(morpholin-4-yl)prop-1-yn-1-yl]-7H-pyrrolo[2,3-d]pyrimidine-5-carboxamide]
Area Under Curve Mean (LUAD-0077AS1 PDX; 50 mg/kg BID): 728.7 | Area Under Curve Mean (LUAD-0077AS1 PDX; 100 mg/kg QD): 549 | Change in tumor volume (block without heading, Fig. 6b) (LUAD-0077AS1 PDX; 50 mg/kg BID): 60.867 and 57.9883 and 49.0287 and 27.5983 and 23.1229 | Tumor volume (LUAD-0077AS1 PDX; 50 mg/kg BID, treatment day 0): 82.36 (2×) and 88.7 and 83.97 and 85.5 | Tumor volume (LUAD-0077AS1 PDX; 50 mg/kg BID, treatment day 4): 85.5 (3×) and 82.36 and 83.97 | Tumor volume (LUAD-0077AS1 PDX; 50 mg/kg BID, treatment day 7): 80.89 (2×) and 82.36 (2×) and 85.5 | Tumor volume (LUAD-0077AS1 PDX; 50 mg/kg BID, treatment day 11): 80.89 (3×) and 74.9 and 77.87 | Tumor volume (LUAD-0077AS1 PDX; 50 mg/kg BID, treatment day 14): 95.03 and 87.03 and 102.07 (3×) | Tumor volume (LUAD-0077AS1 PDX; 50 mg/kg BID, treatment day 19): 105.09 and 109.21 and 122.74 and 135.08 (2×) | Tumor volume (LUAD-0077AS1 PDX; 50 mg/kg BID, treatment day 22): 186.96 and 181.98 and 192.42 and 159.66 and 197.96 | Tumor volume (LUAD-0077AS1 PDX; 50 mg/kg BID, treatment day 25): 232.25 (2×) and 250.35 (2×) and 247.99 | Change in tumor volume (block without heading, Fig. 6b) (LUAD-0077AS1 PDX; 100 mg/kg QD): 67.7861 and 60.2113 and 54.3275 and 44.2105 and 25.5424 | Tumor volume (LUAD-0077AS1 PDX; 100 mg/kg QD, treatment day 0): 82.36 and 83.97 and 87.11 and 85.5 (2×) | Tumor volume (LUAD-0077AS1 PDX; 100 mg/kg QD, treatment day 4): 85.5 (2×) and 83.97 (2×) and 88.7 | Tumor volume (LUAD-0077AS1 PDX; 100 mg/kg QD, treatment day 7): 82.36 and 72.18 and 79.42 and 77.87 and 79.29 | Tumor volume (LUAD-0077AS1 PDX; 100 mg/kg QD, treatment day 11): 79.29 (2×) and 65.37 and 72.18 and 77.87 | Tumor volume (LUAD-0077AS1 PDX; 100 mg/kg QD, treatment day 14): 114.83 and 111.18 and 83.83 (3×) | Tumor volume (LUAD-0077AS1 PDX; 100 mg/kg QD, treatment day 19): 131.95 (2×) and 140.89 and 109.36 and 123.3 | Tumor volume (LUAD-0077AS1 PDX; 100 mg/kg QD, treatment day 22): 136.38 and 156.56 and 135.08 and 138.33 and 147.55 | Tumor volume (LUAD-0077AS1 PDX; 100 mg/kg QD, treatment day 25): 213.8 and 205.8 and 189.86 and 177.9 and 205.88 | Tumor Volume Mean ([1]; Fig. 7c Ba/F3-KIF5B::RET G810R, vepafestinib 10 mg/kg BID, day 1): 153.82 | Tumor Volume Mean ([1]; Fig. 7c Ba/F3-KIF5B::RET G810R, vepafestinib 10 mg/kg BID, day 4): 151.29 | Tumor Volume Mean ([1]; Fig. 7c Ba/F3-KIF5B::RET G810R, vepafestinib 10 mg/kg BID, day 8): 262.19 | Tumor Volume Mean ([1]; Fig. 7c Ba/F3-KIF5B::RET G810R, vepafestinib 10 mg/kg BID, day 11): 374.99 | Tumor Volume Mean ([1]; Fig. 7c Ba/F3-KIF5B::RET G810R, vepafestinib 10 mg/kg BID, day 15): 551.42 | Tumor Volume Mean ([1]; Fig. 7d Ba/F3-KIF5B::RET G810R, vepafestinib 50 mg/kg BID, day 1): 158.4 | Tumor Volume Mean ([1]; Fig. 7d Ba/F3-KIF5B::RET G810R, vepafestinib 50 mg/kg BID, day 4): 122.1 | Tumor Volume Mean ([1]; Fig. 7d Ba/F3-KIF5B::RET G810R, vepafestinib 50 mg/kg BID, day 8): 133.3 | Tumor Volume Mean ([1]; Fig. 7d Ba/F3-KIF5B::RET G810R, vepafestinib 50 mg/kg BID, day 11): 139.6 | Tumor Volume Mean ([1]; Fig. 7d Ba/F3-KIF5B::RET G810R, vepafestinib 50 mg/kg BID, day 15): 173.1 | Change in tumor volume (% from base line) (LUAD-0087AS2 PDX; 50 mg/kg BID): 87.879% and 58.129% and 44.45% and -5.144% and -25.229% | Change in tumor volume (% from base line) (LUAD-0087AS2 PDX; 100 mg/kg QD): 17.228% and 8.714% and 8.637% and 6.644% and -4.481% | Area Under Curve Mean (LUAD-0087AS2 PDX; 50 mg/kg BID): 607.7 | Area Under Curve Mean (LUAD-0087AS2 PDX; 100 mg/kg QD): -475 | Tumor volume (LUAD-0087AS2 PDX; 50 mg/kg BID, treatment day 14): 176.99 and 151.71 and 143.39 and 141.55 and 122.52 | Tumor volume (LUAD-0087AS2 PDX; 50 mg/kg BID, treatment day 17): 184.47 and 160.85 and 154.42 and 148.22 and 128.59 | Tumor volume (LUAD-0087AS2 PDX; 50 mg/kg BID, treatment day 21): 153.78 and 172.55 and 161.49 and 152.64 and 130.54 | Tumor volume (LUAD-0087AS2 PDX; 50 mg/kg BID, treatment day 24): 80.7 and 118.01 and 87.03 and 107.44 and 78.99 | Tumor volume (LUAD-0087AS2 PDX; 50 mg/kg BID, treatment day 29): 140.89 (2×) and 167.28 and 145.47 and 91.61 | Tumor volume (LUAD-0087AS2 PDX; 50 mg/kg BID, treatment day 32): 98.2 and 131.95 and 113.98 and 102.07 and 83.83 | Tumor volume (LUAD-0087AS2 PDX; 50 mg/kg BID, treatment day 35): 98.2 and 165.14 and 137.6 and 146.01 and 86.78 | Tumor volume (LUAD-0087AS2 PDX; 50 mg/kg BID, treatment day 38): 108.88 and 165.14 and 151.71 and 155.09 and 86.78 | Tumor volume (LUAD-0087AS2 PDX; 50 mg/kg BID, treatment day 42): 118.01 and 213.8 and 176.98 and 176.74 and 91.61 | Tumor volume (LUAD-0087AS2 PDX; 50 mg/kg BID, treatment day 45): 118.01 and 222.58 and 176.98 and 181.58 and 91.61 | Tumor volume (LUAD-0087AS2 PDX; 100 mg/kg QD, treatment day 14): 102.07 and 91.61 and 107.17 and 110.58 and 103.77 | Tumor volume (LUAD-0087AS2 PDX; 100 mg/kg QD, treatment day 17): 102.07 and 81.71 and 90.28 and 103.77 (2×) | Tumor volume (LUAD-0087AS2 PDX; 100 mg/kg QD, treatment day 21): 107.17 (2×) and 113.1 and 118.75 and 114.83 | Tumor volume (LUAD-0087AS2 PDX; 100 mg/kg QD, treatment day 24): 93.59 and 83.07 and 77.95 and 87.03 and 98.2 | Tumor volume (LUAD-0087AS2 PDX; 100 mg/kg QD, treatment day 29): 100.37 and 99.78 and 80.89 and 91.87 and 98.2 | Tumor volume (LUAD-0087AS2 PDX; 100 mg/kg QD, treatment day 32): 103.92 and 108.88 and 90.28 and 95.24 and 107.17 | Tumor volume (LUAD-0087AS2 PDX; 100 mg/kg QD, treatment day 35): 109.36 and 120.29 and 95.03 and 107.44 and 110.58 | Tumor volume (LUAD-0087AS2 PDX; 100 mg/kg QD, treatment day 38): 109.36 and 120.29 and 114.83 and 118.75 and 122.12 | Tumor volume (LUAD-0087AS2 PDX; 100 mg/kg QD, treatment day 42): 109.36 and 126.29 and 116.65 and 126.64 and 138.88 | Tumor volume (LUAD-0087AS2 PDX; 100 mg/kg QD, treatment day 45): 109.36 and 126.29 and 120.64 and 126.64 and 138.88
